Measurements published in PMC7904550, “Application of grouping and read-across for the evaluation of parabens of different chain lengths with a particular focus on endocrine properties” (Archives of Toxicology, 2021).

What was measured:
[1] = system: Wistar rats; experiment: Extended one-generation reproductive toxicity study (OECD TG 443); type: in vivo, rat; conditions: for NOAEL, EOGRTS: developmental and reproductive toxicity: OECD 443 v 2018, oral gavage
Source text: Healthy and specific pathogen-free male and female (non-pregnant and nulliparous) Wistar Crl: WI(Han) rats were obtained from Charles River Laboratories (Germany). […] Upon arrival at BSL BIOSERVICE, the animals underwent an acclimatisation period of at least 5 days, and they were approximately 15–16 weeks old at the onset of the treatment period.

[2] = in vivo; conditions: for concentration at 1 h / Tmax / AUC(0-t) / Cmax: Wistar, rat, serum; for concentration at 1 h: oral; for Tmax / AUC(0-t) / Cmax: po
Protocol: These studies were conducted similarly to OECD TG 417 applying 500 and 1000 mg/kg body weight (bw) test item via oral gavage to 10 males and 10 females per dose group. Focus of the toxicokinetic evaluation was on the measurement of the serum concentrations of the parent compounds and their (common) major metabolite p-hydroxybenzoic acid by […] in order to assess the systemic uptake and elimination of the parent compounds and this major metabolite [see also ECHA ([2017a])]. The limit of quantification was determined as 10 ng/mL for all parabens, and as 130 ng/mL for p-hydroxybenzoic acid. […] On account of these major aims, investigations of the faeces and urine were not included in the toxicokinetics screening studies.

[3] = system: bacteria; conditions: OECD 471; ref ECHA dissemination portal; cited from earlier work
[4] = system: mammalian cells; conditions: OECD 476; ref ECHA dissemination portal; cited from earlier work
[5] = parent compound, 500 mg/kg, female
[6] = parent compound, 500 mg/kg, male
[7] = parent compound, 1000 mg/kg, female
[8] = parent compound, 1000 mg/kg, male

Q: What does the source list for `COC(=O)c1ccc(O)cc1` [Methyl paraben, Methyl 4-hydroxybenzoate]?
A: Developmental immunotoxicity (DIT) ([1]; DIT cohort): did not exhibit; Developmental neurotoxicity (DNT) ([1]; DNT cohort): did not exhibit DNT; NOAEL, EOGRTS: developmental and reproductive toxicity [1]: NOAEL: 1000 (OECD 443; v 2018) mg/kg body weight/day; NOAEL, EOGRTS: developmental and reproductive toxicity ([1]; listed as methyl paraben): 1000 mg/kg body weight/day; Accessory sex organs HP ([1]; P0, F1, (F2)): NAE / NAE; Adrenals HP ([1]; P0, F1, (F2)): NAE / NAE; Adrenals weight ([1]; P0, F1, (F2)): NAE / NAE; Age at balano-preputial separation ([1]; P0, F1, (F2)): NAE / NAE; Age at vaginal opening ([1]; P0, F1, (F2)): NAE / NAE; Anogenital distance ([1]; P0, F1, (F2)): NAE / NAE; Auditory startle ([1]; P0, F1, (F2)): NAE / NAE; Brain HP ([1]; P0, F1, (F2)): NAE / NAE; Brain morphometric evaluation ([1]; P0, F1, (F2)): NAE / NAE; Brain weight ([1]; P0, F1, (F2)): NAE / NAE; Cervix HP ([1]; P0, F1, (F2)): NAE / NAE; Coagulating gland HP ([1]; P0, F1, (F2)): NAE / NAE; Coagulating gland weight ([1]; P0, F1, (F2)): NAE / NAE; Colloid area (thyroid HP) ([1]; P0, F1, (F2)): NAE / NAE; Dystocia ([1]; P0, F1, (F2)): NAE / NAE; Epididymis HP ([1]; P0, F1, (F2)): NAE / NAE; Epididymis weight ([1]; P0, F1, (F2)): NAE / NAE; Fertility ([1]; P0, F1, (F2)): NAE / NAE; Foetal development ([1]; P0, F1, (F2)): NAE / NAE; Functional observation battery ([1]; P0, F1, (F2)): NAE [h] / NAE; Gestation length ([1]; P0, F1, (F2)): NAE / NAE; Litter size ([1]; P0, F1, (F2)): NAE / NAE; Litter viability ([1]; P0, F1, (F2)): NAE / NAE; Liver weight ([1]; P0, F1, (F2)): NAE / NAE; Mammary gland HP; females ([1]; P0, F1, (F2)): NAE / NAE; Mammary gland HP; males ([1]; P0, F1, (F2)): NAE / NAE; Motor activity ([1]; P0, F1, (F2)): NAE / NAE; Nipple development ([1]; P0, F1, (F2)): NAE / NAE; No. of implantations, corpora lutea ([1]; P0, F1, (F2)): NAE / NAE; No. of live births ([1]; P0, F1, (F2)): NAE / NAE; No. of ovarian follicles ([1]; P0, F1, (F2)): NAE / NAE; Oestrus cyclicity ([1]; P0, F1, (F2)): NAE / NAE; Offspring: learning & memory ([1]; P0, F1, (F2)): NAE / NAE; Ovary HP ([1]; P0, F1, (F2)): NAE / NAE; Ovary weight ([1]; P0, F1, (F2)): NAE / NAE; Oviduct HP ([1]; P0, F1, (F2)): NAE / NAE; Pituitary HP ([1]; P0, F1, (F2)): NAE / NAE; Pituitary weight ([1]; P0, F1, (F2)): NAE / NAE; Postimplantation loss ([1]; P0, F1, (F2)): NAE / NAE; Presence of anomalies (external, visceral, skeletal) ([1]; P0, F1, (F2)): NAE / NAE; Prostate HP ([1]; P0, F1, (F2)): NAE / NAE; Prostate weight ([1]; P0, F1, (F2)): NAE / NAE; Pup development ([1]; P0, F1, (F2)): NAE / NAE; Reproduction ([1]; P0, F1, (F2)): NAE / NAE; Seminal vesicles HP ([1]; P0, F1, (F2)): NAE / NAE; Seminal vesicles weight ([1]; P0, F1, (F2)): NAE / NAE; Sperm morphology ([1]; P0, F1, (F2)): NAE / NAE; Sperm motility ([1]; P0, F1, (F2)): NAE / NAE; Sperm numbers ([1]; P0, F1, (F2)): NAE / NAE; Testis HP ([1]; P0, F1, (F2)): NAE / NAE; Testis weight ([1]; P0, F1, (F2)): NAE / NAE; Thyroid HP ([1]; P0, F1, (F2)): NAE / NAE; Thyroid stimulating hormone level ([1]; P0, F1, (F2)): NAE / NAE; Thyroid weight ([1]; P0, F1, (F2)): NAE / NAE; Time to mating ([1]; P0, F1, (F2)): NAE / NAE; Triiodothyronine / thyroxine level ([1]; P0, F1, (F2)): NAE / NAE; Uterus HP (with cervix) ([1]; P0, F1, (F2)): NAE / NAE; Uterus weight (with cervix) ([1]; P0, F1, (F2)): NAE / NAE; Vagina HP ([1]; P0, F1, (F2)): NAE / NAE; Vaginal smears ([1]; P0, F1, (F2)): NAE / NAE; Alterations of the parameters addressed in OECD TG 443 ([1]; up to 1000 mg/kg bw/day): no toxicologically relevant alterations; concentration at 1 h ([2]; female, 500 mg/kg): 338 ng/mL; concentration at 1 h ([2]; female, 1000 mg/kg): 924 ng/mL; Tmax ([2]; female, 500 mg/kg): 4.8 min; AUC(0-t) ([2]; female, 500 mg/kg, AUC0-1 h, parent compound): 6450 ng·h/mL; AUC(0-t) ([2]; female, 500 mg/kg, AUC0–t, parent compound): 9500 ng·h/mL; Cmax ([2]; female, 500 mg/kg, parent compound): 21200 ng/mL; Tmax ([2]; female, 1000 mg/kg): 4.8 min; AUC(0-t) ([2]; female, 1000 mg/kg, AUC0-1 h, parent compound): 11400 ng·h/mL; AUC(0-t) ([2]; female, 1000 mg/kg, AUC0–t, parent compound): 20500 ng·h/mL; Cmax ([2]; female, 1000 mg/kg, parent compound): 33600 ng/mL; Cmax ([2]; female, 1000 mg/kg, parent compound, females): ~34000 ng/mL; concentration at 1 h ([2]; male, 500 mg/kg): 172 ng/mL; concentration at 1 h ([2]; male, 1000 mg/kg): 552 ng/mL; Tmax ([2]; male, 500 mg/kg): 4.8 min; AUC(0-t) ([2]; male, 500 mg/kg, AUC0-1 h, parent compound): 1110 ng·h/mL; AUC(0-t) ([2]; male, 500 mg/kg, AUC0–t, parent compound): 1790 ng·h/mL; Cmax ([2]; male, 500 mg/kg, parent compound): 6200 ng/mL; AUC(0-t) ([2]; male, 1000 mg/kg, AUC0-1 h, parent compound): 4640 ng·h/mL; AUC(0-t) ([2]; male, 1000 mg/kg, AUC0–t, parent compound): 6150 ng·h/mL; Cmax ([2]; male, 1000 mg/kg, parent compound): 10800 ng/mL; Cmax ([2]; male, 1000 mg/kg, parent compound, males): ~11000 ng/mL; Rank of maximum serum concentration among the four parabens ([2]; parent compound): highest maximum serum concentrations; AUC0-1 h/AUC0–t [2, 5]: 68%; C1h/Cmax [2, 5]: 1.6%; Clast [2, 5]: 77.3 ng/mL; tlast [2, 5]: 8.0 h; AUC0-1 h/AUC0–t [2, 6]: 62%; C1h/Cmax [2, 6]: 2.8%; Clast [2, 6]: 48.6 ng/mL; tlast [2, 6]: 8.0 h; AUC0-1 h/AUC0–t [2, 7]: 55%; C1h/Cmax [2, 7]: 2.7%; Clast [2, 7]: 179 ng/mL; tlast [2, 7]: 8.0 h; AUC0-1 h/AUC0–t [2, 8]: 75%; C1h/Cmax [2, 8]: 5.1%; Clast [2, 8]: 122 ng/mL; tlast [2, 8]: 8.0 h; Mutagenicity in bacteria classification [3]: Not mutagenic (OECD 471; 1982, 1991); Mutagenicity in mammalian cells classification [4]: Not mutagenic [c] (OECD 476; 2019)
